The nature of data set [1]: cells. The data set is classed as functional, cell-based.
Data set [2] can be described thus: cells. The data set is classed as functional, cell-based. The source holds these as a separate data set.
The target of data set [3] is T1, Cytochrome P450 2C9 (Homo sapiens, UniProt P11712).
Data set [4] has as its target T2, Cytochrome P450 3A4 (Homo sapiens, UniProt P08684).
A short description of data set [5]: HEK293T cytotoxicity, dose response, cytotoxicity control for miR-122 modulator project, cell-based, inhibitor set, cherry-pick, set 2 (AID 720697). The data set is classed as functional.
Data set [6] in a line: Luminescence Cell-Based Dose Confirmation HTS to Identify Activators of 5'UTR Stem-Loop Driven Alpha-Synuclein mRNA Translation in H4 Neuroglioblastoma Cells. [Related pubchem assays: 1829 (Project Summary), 1814 (Primary HTS)]. It is filed as functional.
The nature of data set [7]: Luminescence Cell-Based Dose Response HTS to Identify Activators of Luciferase Translation or Activity in H4 […] Cells. [Related pubchem assays: 1829 (Project Summary), 1814 (Primary HTS)]. The data set is classed as functional.
A further data set relates to H4. Description: Luminescence Cell-Based Dose Response HTS to Identify Activators of 5'UTR Stem-Loop Driven Prion Protein mRNA Translation in H4 Neuroglioblastoma Cells. [Related pubchem assays: 1829 (Project Summary), 1814 (Primary HTS)]. The note with it: Homo sapiens. It is filed as functional.
Data set [8] deals with T1, Cytochrome P450 2C9. The source holds these as a separate data set.
Another data set addresses Cytochrome P450 2D6 (Homo sapiens, UniProt P10635).
The target of a further data set is Cytochrome P450 2C19 (Homo sapiens, UniProt P33261). In words: Cytochrome panel assay with activity outcomes. Panel member name: p450-cyp2c19 Compounds with AC50 equal or less than 10 uM are considered active. The data set is classed as functional. The note with it: read-out: AC50.
Chain of Cytochrome P450 2C19 (P33261 whole entry): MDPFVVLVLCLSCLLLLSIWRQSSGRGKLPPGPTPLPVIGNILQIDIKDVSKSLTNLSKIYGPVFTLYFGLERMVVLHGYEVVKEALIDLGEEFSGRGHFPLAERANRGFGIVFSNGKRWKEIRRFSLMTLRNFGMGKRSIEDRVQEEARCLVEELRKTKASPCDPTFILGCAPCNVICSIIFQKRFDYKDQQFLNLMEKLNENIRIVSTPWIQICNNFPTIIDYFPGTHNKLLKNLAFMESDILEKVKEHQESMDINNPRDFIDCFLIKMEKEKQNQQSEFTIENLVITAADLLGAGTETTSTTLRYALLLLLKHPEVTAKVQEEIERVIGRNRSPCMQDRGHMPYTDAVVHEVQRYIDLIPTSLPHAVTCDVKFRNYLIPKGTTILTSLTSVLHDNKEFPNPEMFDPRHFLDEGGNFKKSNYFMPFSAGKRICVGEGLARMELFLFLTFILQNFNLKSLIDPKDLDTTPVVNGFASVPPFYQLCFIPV
Data set [9] concerns Streptococcus sp. 'group A'. In words: growth inhibition of control SK(-) GAS strain, dose response, counter-screen for streptokinase expression inhibitor project, luminescence, kanamycin, BacTiterGlo, confirmation (AID 1900). It is filed as functional, organism-based. Background: The purpose of a counterscreen is to sort out artefacts and off-target activity.
In the next data set the target is T3, Streptokinase A (Streptococcus pyogenes serotype M1, UniProt P10520).
T3 sequence (P10520 whole entry): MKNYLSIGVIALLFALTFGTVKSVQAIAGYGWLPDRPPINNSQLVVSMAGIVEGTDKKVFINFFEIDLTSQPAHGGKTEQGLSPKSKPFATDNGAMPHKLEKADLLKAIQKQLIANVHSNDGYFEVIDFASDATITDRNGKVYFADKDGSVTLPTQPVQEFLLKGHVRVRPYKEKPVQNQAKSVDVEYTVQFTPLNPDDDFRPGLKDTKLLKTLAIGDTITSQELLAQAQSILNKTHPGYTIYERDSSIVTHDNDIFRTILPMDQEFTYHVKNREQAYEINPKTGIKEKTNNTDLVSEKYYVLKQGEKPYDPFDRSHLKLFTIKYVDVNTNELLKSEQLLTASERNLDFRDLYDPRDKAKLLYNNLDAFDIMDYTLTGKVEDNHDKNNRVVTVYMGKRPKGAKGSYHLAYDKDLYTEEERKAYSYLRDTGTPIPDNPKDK
In words: S. pyogenes streptokinase expression inhibitors, potency, dose response, plasminogen activation absorbance, OD405 (AID 1914).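 Note: secreted streptokinase activity via plasminogen activation per viability signal from cell pellet.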 It is filed as functional, Streptococcus pyogenes M1 GAS.

A further data set relates to Streptococcus. In words: Group A Streptococcus viability loss, dose response, counter-screen for streptokinase expression inhibitor project, luminescence, BacTiterGlo (AID 1915).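 Note: potency for reduction of bacterial viability or growth.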 It is filed as functional, organism-based.
In a further data set the target is T4, Cytochrome P450 1A2 (Homo sapiens, UniProt P05177).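 Note: PubChem cytochrome P450 panel assay, CYP1A2 panel member.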
T4 sequence (P05177 whole entry): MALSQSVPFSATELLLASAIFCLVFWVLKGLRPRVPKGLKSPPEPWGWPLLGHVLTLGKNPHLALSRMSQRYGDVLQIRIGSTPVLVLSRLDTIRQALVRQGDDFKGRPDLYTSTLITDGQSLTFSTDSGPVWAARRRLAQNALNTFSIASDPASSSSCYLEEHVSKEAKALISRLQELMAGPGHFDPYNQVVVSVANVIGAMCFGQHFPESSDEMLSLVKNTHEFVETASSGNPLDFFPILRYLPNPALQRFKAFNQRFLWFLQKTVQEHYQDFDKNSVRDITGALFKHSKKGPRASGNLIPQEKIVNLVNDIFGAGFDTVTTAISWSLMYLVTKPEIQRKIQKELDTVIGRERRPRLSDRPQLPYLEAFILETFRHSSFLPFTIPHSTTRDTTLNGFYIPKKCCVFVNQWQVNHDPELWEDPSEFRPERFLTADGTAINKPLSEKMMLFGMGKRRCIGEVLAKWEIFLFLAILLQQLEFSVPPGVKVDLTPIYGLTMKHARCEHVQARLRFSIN

For data set [10], the target named is T2, Cytochrome P450 3A4. This is another data set of the same source.

Calls of active or inactive are those of the source.

T1 sequence (P11712 whole entry): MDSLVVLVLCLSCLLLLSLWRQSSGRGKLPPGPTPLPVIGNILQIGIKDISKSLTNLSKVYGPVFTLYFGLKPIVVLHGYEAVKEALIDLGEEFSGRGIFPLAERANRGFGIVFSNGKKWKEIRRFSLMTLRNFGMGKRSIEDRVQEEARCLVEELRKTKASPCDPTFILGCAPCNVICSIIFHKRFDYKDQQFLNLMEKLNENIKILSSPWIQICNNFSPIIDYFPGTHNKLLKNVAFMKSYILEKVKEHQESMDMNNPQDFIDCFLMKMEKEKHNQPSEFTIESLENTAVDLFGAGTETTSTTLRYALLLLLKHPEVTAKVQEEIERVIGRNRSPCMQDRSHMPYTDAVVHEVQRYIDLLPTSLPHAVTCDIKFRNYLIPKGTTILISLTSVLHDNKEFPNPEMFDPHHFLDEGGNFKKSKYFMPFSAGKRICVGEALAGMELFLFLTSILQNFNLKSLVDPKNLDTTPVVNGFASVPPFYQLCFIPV
T2 sequence (P08684 whole entry): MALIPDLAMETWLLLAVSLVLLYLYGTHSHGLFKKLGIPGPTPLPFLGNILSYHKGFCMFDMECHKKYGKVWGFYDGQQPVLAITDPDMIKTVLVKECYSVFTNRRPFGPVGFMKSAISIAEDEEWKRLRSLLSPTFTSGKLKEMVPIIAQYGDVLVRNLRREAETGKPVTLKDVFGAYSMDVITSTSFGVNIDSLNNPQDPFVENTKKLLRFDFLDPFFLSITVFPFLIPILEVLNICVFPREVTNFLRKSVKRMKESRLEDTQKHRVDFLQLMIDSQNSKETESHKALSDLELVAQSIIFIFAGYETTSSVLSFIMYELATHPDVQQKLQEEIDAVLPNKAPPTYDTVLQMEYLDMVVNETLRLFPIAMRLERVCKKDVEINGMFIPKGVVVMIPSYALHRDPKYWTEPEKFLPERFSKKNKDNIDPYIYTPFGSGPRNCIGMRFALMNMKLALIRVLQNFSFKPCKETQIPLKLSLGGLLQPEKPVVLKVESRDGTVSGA
Chain of Cytochrome P450 2D6 (P10635 whole entry): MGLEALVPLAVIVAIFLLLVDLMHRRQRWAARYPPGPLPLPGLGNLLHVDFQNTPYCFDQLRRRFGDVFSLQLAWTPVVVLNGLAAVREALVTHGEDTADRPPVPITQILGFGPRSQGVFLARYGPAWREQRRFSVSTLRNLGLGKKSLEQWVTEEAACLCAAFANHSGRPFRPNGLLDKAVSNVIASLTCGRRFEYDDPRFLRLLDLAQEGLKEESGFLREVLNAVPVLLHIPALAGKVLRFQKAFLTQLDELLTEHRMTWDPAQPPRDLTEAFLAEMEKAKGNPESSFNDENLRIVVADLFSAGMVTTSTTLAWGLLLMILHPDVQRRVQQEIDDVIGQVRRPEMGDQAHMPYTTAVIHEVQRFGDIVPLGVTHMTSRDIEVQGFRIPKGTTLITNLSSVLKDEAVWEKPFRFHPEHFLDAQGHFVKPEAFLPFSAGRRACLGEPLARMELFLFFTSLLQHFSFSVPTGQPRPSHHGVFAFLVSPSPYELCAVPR

As a reminder, the EC50 is the midpoint of the concentration-response curve. For the compound `COc1ccccc1C(=O)Nc1ccccc1SC(=O)c1ccccc1OC`, the EC50 in “cells [1]” and in “cells [2]” was > 350 µM (not active) each time.

What is called AC50 is the concentration at which the activity in the assay is half-maximal. Consider `CCSc1ncnc2c1sc1nc(-c3ccco3)c3c(c12)CC(C)(C)OC3`, for which the AC50 at Cytochrome P450 2C9 [3] was 2 µM (inconclusive); at Cytochrome P450 3A4 [4], “inconclusive”.

On to `O=C1CCCc2ccccc2N1Cc1ccc(F)cc1`, for which the half-maximal effective concentration (EC50) in the data set “cells [1]” and in the data set “cells [2]” was > 350 µM (not active) in each case.

Consider `C/C=C/c1ccc([C@H]2[C@@H](CNC(=O)CC)N(Cc3ccccn3)[C@H]2CO)cc1`, for which the AC50 in data set [5] was 0.454 µM (active).

As to `CC(C)OC(=O)CC12CN(C)CC(CC(=O)OC(C)C)(CN(C)C1)C2=O`, the results for the EC50 (in [6]; in data set [7]; with H4) were 47.6 µM (active), 72.4 µM (active) and 37 µM (active), respectively. Besides, on Cytochrome P450 2C9 [8], the concentration at half-maximal activity (AC50) result was “inconclusive”.

On to `C#CC[N+](CC)(CC)CC#Cc1cccc(Cl)c1.[Br-]`, for which the AC50 on Cytochrome P450 2D6 was 2.24 µM (inconclusive); at Cytochrome P450 3A4 [4] it was “inconclusive”.

Consider `NS(=O)(=O)c1ccc(CNC(=O)/C=C/c2c(Cl)cccc2Cl)cc1`, for which the AC50 on Cytochrome P450 2C19 was 25.1 µM (inconclusive); at Cytochrome P450 2C9 [8], “inconclusive”.

For `Cc1nc2ccc3nc(NC(=O)c4ccc(S(=O)(=O)N5CCOCC5)cc4)sc3c2s1`, on Cytochrome P450 3A4 [4], the half-maximal activity concentration (AC50) result was “inconclusive”.

For `O=S(=O)(NCc1nnc2c(C(F)(F)F)cc(Cl)cn12)c1ccccc1`, the 50% effective concentration (EC50) is given as > 150 µM (not active) in data set [9]; > 350 µM (not active) in the data set “cells [1]”; > 150 µM (not active) at Streptokinase A; > 350 µM (not active) in the data set “cells [2]”; > 150 µM (not active) in the data set with Streptococcus.

As for `C[C@@]12CC[C@H]3[C@@H](CCC4=CC(=O)CC[C@]43C)[C@H]1CC[C@H]2C(=O)CO`, the concentration at half-maximal activity (AC50) entry at Cytochrome P450 3A4 [4] is “inconclusive”.

As to `O=C(Oc1ccccc1)N1CCC2(CC1)CCN(c1ccccc1)CC2`, the AC50 result at Cytochrome P450 3A4 [4] is “inconclusive”.

Take `N#Cc1ccc(CN2CCC3(CC2)CCN(C(=O)Oc2ccccc2)CC3)cc1`: on Cytochrome P450 3A4 [4], the AC50 result is “inconclusive”.

Regarding `O=c1c2ccccc2nnn1CSc1nnnn1-c1ccccc1`, the AC50 is 17.8 µM (inconclusive) on Cytochrome P450 2D6, 25.1 µM (inconclusive) at Cytochrome P450 1A2, 12.6 µM (inconclusive) at Cytochrome P450 3A4 [10] and “inconclusive” on Cytochrome P450 2C9 [8].

Values taken from ChEMBL document CHEMBL1201862, “PubChem BioAssay data set” (2004).
